Results on four compounds are retold here after patent US4017632A, “Phenoxyacetic acid derivatives” (Centre European de Recherches Pharmacologiques C.E.R.P.H.A., priority 1975, dated 1977).

Data set [1] has as its system retention of phenol red in the circulation. Kind of data set: Uricosuric activity: retention of phenol red in the circulation of the rat. The format is in vivo. The note with it: 100 mg/kg per os; for % of retention (phenol red), 15 mn: 15 min after phenol red injection; for % of retention (phenol red), 30 mn: 30 min after phenol red injection; for % of retention (phenol red), 45 mn: 45 min after phenol red injection; for % of retention (phenol red), 60 mn: 60 min after phenol red injection. Here is the method:
This activity was determined by the ability of the compounds to cause retention of phenol red in the circulation of the rat, method described by
Scarborough h. c. and M. C. KINNEY G. R. --
The products were administered one hour before phenol red injection to batches of 5 rats of 250-280 g; anesthetized with ether, the animals received an I.V. injection of 1 cm3 of a 1% phenol red solution. Blood samplings were made 15, 30, 45 and 60 minutes after injection. The pink colour develop after addition to the plasma of an N/10 aqueous solution of sodium hydroxide.
For instance the compounds of examples 5 and 1, and benziodarone give the following results for a dosis of 100 mg/kg per os.

The nature of data set [2]: Acute toxicity per os in mice. The following applies: mouse, in vivo, po; for LD50 at 48 h: male mice (Swiss C.D), per os, mortality after 48 hours, read-out: LD 50 per os. Here is the method: The compounds were administered in the usual way to lots of 10 male mice (Swiss C.D) of average weight 20 g. Mortality was assessed after 48 hours for toxicity per os.
For a further data set, the system named is diuresis. Kind of data set: Diuretic activity in mice. It counts as in vivo. How it is done:
The activity is determined on mice. The ratio R of the mean values of diuresis obtained for the treated animals to the mean values for control animals are determined.

For data set [3], the system named is urinary excretion and clearance of uric acid. Kind of data set: Uricosuric activity in the phosphate-mannitol infused mongrel dog (renal clearance). It counts as in vivo. Here is the method:
The uricosuric activity of the compound of example 1 was further studied.
The uricosuric activity is determined by intravenous administration of a test compound to the phosphate-mannitol infused mongrel dog as a rapid injection at doses of 5 or 15 mg/kg. Renal clearance studies are compared against control experiments conducted in the same dogs. The urate clearance is calculated from the plasma and urinary concentrations. […] For example, compound of example 1 at a dose of 5 mg/kg i.v. increased urate excretion as a percentage of glomerular filtration rate from a value of 27% up to 40% and at a dose of 15 mg/kg i.v. increased it from 28% up to 74%.

For the compound `O=C(O)COc1c(Br)cc(C(O)c2cccs2)cc1Br` (centres unmarked) [Example 5, 2,6-dibromo-4-(2-thienyl-hydroxy-methyl)-phenoxy-acetic acid], in data set [1], the “% of retention (phenol red), 15 mn” value is reported as 68%; the “% of retention (phenol red), 30 mn” value is listed as 123%; the “% of retention (phenol red), 45 mn” value came to 105%; the “% of retention (phenol red), 60 mn” value worked out at 58%. In addition, the LD50 at 48 h in data set [2] was > 1000 mg/kg.

`CCc1oc2ccccc2c1C(=O)c1cc(I)c(O)c(I)c1` [benziodarone, reference compound]: in data set [1], the “% of retention (phenol red), 15 mn” value came to 37%; the “% of retention (phenol red), 30 mn” value stood at 50%; the “% of retention (phenol red), 45 mn” value was 53%; the “% of retention (phenol red), 60 mn” value is reported as 18%. Also, the LD50 at 48 h in data set [2] was determined as 1400 mg/kg.

On to `O=C(O)COc1ccc(C(O)c2cccs2)c(Cl)c1Cl` (centres unmarked) [Example 1, 2,3-dichloro-4-(2-thienyl-hydroxy-methyl)-phenoxy-acetic acid], for which, in data set [1], the “% of retention (phenol red), 15 mn” value turned out to be 51%; the “% of retention (phenol red), 30 mn” value amounted to 44%; the “% of retention (phenol red), 45 mn” value is reported as 31%; the “% of retention (phenol red), 60 mn” value was found to be 28%. Also, in the data set on diuresis (100 mg/kg P.O.), the “ratio R of mean diuresis of treated animals to control animals” value worked out at 1.6. Besides, in data set [3] (5 mg/kg i.v., increased from a value of 27%), the “urate excretion as a percentage of glomerular filtration rate” value is given as 40%. In addition, in data set [3] (15 mg/kg i.v., increased from 28%), the “urate excretion as a percentage of glomerular filtration rate” value is 74%. Besides, the LD50 at 48 h in data set [2] stood at 1000 mg/kg.

For the compound `C=C(CC)C(=O)c1ccc(OCC(=O)O)c(Cl)c1Cl` [ethacrynic acid, reference compound], the “ratio R of mean diuresis of treated animals to control animals” value in the data set on diuresis (20 mg/kg P.O.) amounted to 2.4. For the same compound, in data set [2] (P.O., ethacrynic acid, given in the diuretic activity section, read-out: DL 50 P.O.), the LD50 worked out at 600 mg/kg.
